Measured values as given in patent US11712429B2, “Low eructation composition and methods for treating and/or preventing cardiovascular disease in a subject with fish allergy/hypersensitivity” (Amarin Pharmaceuticals Ireland Limited, priority 2010, dated 2023).
One block for each compound: values may come before it.

Experiments:
[1] = tested on: subjects with AAMI; details: 50 mg, cited from earlier work
[2] = tested on: subjects with age-associated impairment (AAMI); test: CDR computerized cognitive test battery, 6-week placebo-controlled dose-ranging study; assay type: in vivo, human
Description: A single center, double blind, randomized, parallel-group, placebo controlled dose-ranging study of E-EPA in subjects with age-associated impairment (AAMI) was performed. The primary goal was to examine the effect of ethyl-EPA versus placebo on cognitive performance in subjects with AAMI as measure by the power of attention tasks in a computerized test batter over a period of 6 weeks. Secondary objectives were to:
(1) examine the effect of E-EPA versus placebo over 6 weeks on the following tests in the computerized cognitive battery: Continuity of attention tasks; Quality of working memory tasks; Quality of episodic memory tasks; Speed of attention tasks;
The study plan was to enroll 96 subjects who would be randomly allocated to 1 of 4 possible treatment groups for 6 weeks, in a balanced block design (24 subjects per group), as follows: • 1. 1 g ethyl-EPA daily • 2. 2 g ethyl-EPA daily • 3. 4 g ethyl-EPA daily • 4. Placebo (paraffin oil) daily
Ethyl-EPA was provided as 500 mg soft gel capsules providing ethyl-EPA of >96% purity, 0.25% to 0.38% by weight ethyl octadecatetraenoate, 0.075% to 0.15% by weight ethyl nonaecapentaenoate, 0.25% to 0.35% by weight ethyl arachidonate, 0.3% to 0.4% by weight ethyl eicosatetraenoate (ETA-E), 0.075% to 0.15% ethyl heneicosapentaenoate and 0.2% dl-[…]-tocopherol as an antioxidant. Matching placebo capsules contained […] of liquid paraffin and 0.2% dl-[…]-tocopherol. The placebo group was further randomized so that an equal number of subjects (8) was allocated 1 g, 2 g or 4 g placebo. Study drug was taken twice daily (BID) as a divided dose (e.g. for the 1 g dose, 500 mg was given in the morning and a further 500 mg was given in the evening) with a light snack or meal.
The study consisted of a screening visit, a training visit and 4 study visits. At the screening visit, subjects' eligibility was determined through cognitive tests (verbal paired associated learning [PAL] subscale, vocabulary subtest, Memory Assessment Clinics Questionnaire [MAC-Q], mini mental state evaluation [MMSE] and MINI [mini international neuropsychiatirc interview; sections 1 and 2 of Diagnostic and Statistical Manual of Mental Disorders, 4th Ed. (DSM-IV) plus dysthymia]), haematology, clinical chemistry and 12-lead electrocardiogram (ECG). At the training visit, subjects were shown how to use the CDR computerized system. Subjects took study drug for 6 weeks and on Days 0, 14, 28 and 42, subjects underwent the CDR cognitive test battery.
A selection of tasks from the CDR computerized cognitive assessment system were administered (Appendix 8 of protocol) at Visit 2 (training visit), Visit 3 (baseline), Visit 4 (Day 14), Visit 5 (Day 28) and Visit 6 (Day 42). Parallel forms of the tests were presented at each testing session. All tasks were computer-controlled, the information presented on high resolution monitors, and the responses recorded via a response model containing 2 buttons 1 marked ‘no’ the other ‘yes’. Five CDR composite scores were used as the primary/secondary outcome variables.
Summary statistics were provided for the ITT and Study PP Populations separately for all composite scores, major and supportive variables. Summary statistics were performed for both the unadjusted and difference from baseline data (i.e. the difference from the time matched pre-dose assessments on Day 0). Summary statistics were calculated by treatment, day and time-point. The summary statistics comprised n, mean, median, SD, standard error of mean (SEM), minimum and maximum values.
Difference from baseline data for each major variable was evaluated by an Analysis of Covariance (ANCOVA) using SAS® PROC MIXED Version 8.2.
Fixed effects for treatment, day, time point, treatment by day, treatment by time point, treatment by day by time-point were fitted. Subject within treatment was fitted as a repeated effect using the repeated statement. The compound symmetry covariance structure was used. […]

[3] = Essential fatty acid (EFA) measurements in plasma and RBC, AAMI study; assay type: in vivo, human
Description: (3) assess the potential dose-effect relationship of E-EPA on the cognitive endpoints by measurement of essential fatty acids in plasma and red blood cell membranes. 94 subjects were randomized. Blood samples (10 mL) were collected at Visit 1 (screening) and at Visits 4, 5 and 6. Analysis was performed by MSR Lipid Analysis, Scottish Crop Research Institute, Dundee, UK. The screening sample acted as baseline for the EFA measurements. Lipid was extracted from plasma, serum and RBC suspensions and converted into fatty acid methyl esters which were analyzed by gas chromatography to give fatty acid profiles as micrograms fatty acid per gram of sample (μgFA/g) and normalized area percent. The CDR computerized system has been used to measure the effects of pharmaceuticals on cognitive function in a variety of clinical trials. Efficacy was assessed by a battery of cognition tests designed by CDR. Safety data were analyzed by Quanticate. RBC and plasma EFA data were collected at baseline, Day 14, 28 and 42 and summarized by visit for each treatment group. Change from baseline and percent change from baseline were also summarized. ANCOVA comparison of ethyl-EPA dose groups and ethyl-EPA versus placebo was performed.

[4] = tested on: individuals with Huntington disease; test: Huntington disease trial (TREND-HD): non-fasting triacylglycerols and total cholesterol; assay type: in vivo, human
From the text: Eligible study participants provided written consent. […] The outcome measure of this study was the change in non-fasting triacylglycerol (TG) levels in those on AMR101 compared to those on placebo. Changes in lipid levels were compared using an analysis of covariance (ANCOVA) with treatment group as the factor of interest, site as a stratification factor, and baseline value as a covariate. All individuals who received study medication were included in the safety analysis. For each type of adverse event, the treatment groups were compared regarding the occurrence of at least one event using Fisher's exact test.

[5] = tested on: individuals with Huntington disease; test: Huntington disease trial (TREND-HD): total motor score 4 of the Unified Huntington's Disease Rating Scale; assay type: in vivo, human
From the text: Eligible study participants provided written consent.

[6] = parameters: species or system human; details: in vivo
Description: A phase I, multiple dose pharmacokinetic study in healthy male volunteers was carried out at a single center. Twenty-four subjects were divided into two treatment groups of 12 subjects each (groups A and B). Both groups received the same total daily dose of AMR101 but the dosing regiments were different. All subjects received a single oral dose of 2 g AMR101 on Day 1. Treatment Group A received 28 continuous once daily doses of 2 g AMR101. Treatment Group B received 27 continuous twice daily doses of 1 g AMR101 and a single dose of 2 g of AMR101 on day 30.
Levels of EPA and other essential fatty acids were determined in plasma and red blood cells. Blood samples for pharmacokinetic analysis were taken at the following time points for Treatment groups A and B:
Days 9, 16, 23: pre morning dose;
Days 37, 44, 58: post last dose.
A first Interim Report presents the following pharmacokinetic results for Treatment Group B:
Red cell—Day 1 (Pre-dose and 36 h), Day 30 (1 h post-dose), Day 37, Day 44, Day 58.

[7] = tested on: patients with fasting triglyceride levels ≥500 mg/dL; test: Phase 3 12-week double-blind study: treatment-emergent adverse events; assay type: in vivo, human; details: 12 weeks
Description: A multi-center, placebo-controlled randomized, double-blind, 12-week study with an open-label extension was performed to evaluate the efficacy and safety of AMR101 in patients with fasting triglyceride levels ≥500 mg/dL. The primary objective of the study was to determine the efficacy of AMR101 2 g daily and 4 g daily, compared to placebo, in lowering fasting TG levels in patients with fasting TG levels ≥500 mg/dL and ≤1500 mg/dL (≥5.65 mmol/L and ≤16.94 mmol/L). Approximately 240 patients were randomized at approximately 50 centers in North America, South America, Central America, Europe, India, and South Africa. The Phase 3, multi-center study consisted of 3 study periods: (1) A 6- to 8-week screening period that includes a diet and lifestyle stabilization and washout period and a TG qualifying period; (2) A 12-week, double-blind, randomized, placebo-controlled treatment period; and (3) A 40-week, open-label, extension period. After confirmation of qualifying fasting TG values, eligible patients entered a 12-week, randomized, double-blind treatment period. At Visit 4 (Week 0), patients were randomly assigned to 1 of the following treatment groups: • AMR101 2 g daily, • AMR101 4 g daily, or • Placebo. Eligible patients were randomly assigned at Visit 4 (Week 0) to receive orally AMR101 2 g daily, AMR101 4 g daily, or placebo for the 12-week double-blind treatment period. AMR101 was provided in 1 g liquid-filled, oblong, gelatin capsules. The matching placebo capsule was filled with light liquid paraffin and contained 0 g of AMR101. During the double-blind treatment period, patients took 2 capsules (AMR101 or matching placebo) in the morning and 2 in the evening for a total of 4 capsules per day. Patients in the AMR101 2 g/day treatment group received 1 AMR101 1 g capsule and 1 matching placebo capsule in the morning and in the evening. Patients in the AMR101 4 g/day treatment group received 2 AMR101 1 g capsules in the morning and evening. The efficacy variable for the open-label extension period was percent change in fasting TG from extension baseline to end of treatment. Safety assessments included adverse events, clinical laboratory measurements (chemistry, hematology, and urinalysis), 12-lead electrocardiograms (ECGs), vital signs, and physical examinations Top line results of the study are shown in FIGS. 3 and 4. Adverse events are shown in Table 9 by comparison with placebo and those experienced by subjects taking commercially available mixture of E-EPA and E-DHA (Lovaza).

SMILES: CN[C@@H](C)C/C=C/c1cncc(OC(C)C)c1 [Ispronicline]
Power of Attention, mean ([1]; Day 21, SD=61.22, placebo mean=28.25): -32.54 ms
benefit to Power of Attention (vs placebo) ([1]; Day 21 of repeated dosing, subjects with AAMI): 61 ms

EPA, DPAn-3 and EPA/AA ratio plasma and RBC values ([3]; baseline to Day 42, 1, 2, and 4 g treatment groups): increased substantially
plasma lipid EPA levels at 48 hours post-administration ([6]; po): remaining above baseline
Tmax ([6]; male, human): 4.64 h
time of maximum plasma lipid EPA values ([6]; male, human, po): 5 h
SMILES: CC/C=C\C/C=C\C/C=C\C/C=C\C/C=C\CCCC(=O)OCC [AMR101, all-cis eicosa-5,8,11,14,17-pentaenoic acid ethyl ester]
Choice Reaction Time ([2]; 1 and 4 g ethyl-EPA on Day 42, versus placebo): some trends for benefit
Continuity of Attention ([2]; 2 g ethyl-EPA, only visible in the ITT population): overall decrease
Speed of Memory and subtasks (Spatial and Numeric Working Memory Speeds, Word and Picture Recognition Speed) ([2]; Ethyl-EPA vs placebo, F-ratio statistics): no differences in performance
Digit Vigilance Targets Detected ([2]; active treatment versus placebo, no obvious treatment-related pattern): isolated decreases
Self-rated Calmness ([2]; active treatment vs placebo): no difference in ratings
Power of Attention ([2]; ethyl-EPA 1, 2, 4 g daily vs placebo, 6 weeks, ANCOVA): no statistically significant effect of treatment
Choice Reaction Time ([2]; ethyl-EPA 1 g and 2 g on Day 28, versus placebo, no clear treatment-related pattern): statistically significant benefits
Quality of Working Memory ([2]; ethyl-EPA 1 g and 2 g versus placebo on Days 14 and 28, judged due to chance): isolated statistically significant decreases
Self-rated Contentment ([2]; ethyl-EPA 2 g on Day 28, judged unlikely treatment-related): statistically significant decreases in ratings
Quality of Episodic Secondary Memory ([2]; ethyl-EPA versus placebo at various time-points, judged unlikely to be treatment effect): statistically significant decreases
Self-rated Alertness ([2]; ethyl-EPA vs placebo): no apparent difference in ratings
Continuity of Attention ([2]; ethyl-EPA vs placebo, 6 weeks): did not show a difference
Reaction times in the attention tasks (Power of Attention, Simple Reaction Time, Choice Reaction Time) ([2]; post-hoc analysis, ethyl-EPA 4 g vs corresponding placebo): improved the subjects' reaction times
Percent Fatty Acid Change from Baseline: AA ([3]; 4 g dose, plasma, 6 weeks): −21.9%
Percent Fatty Acid Change from Baseline: DGLA ([3]; 4 g dose, plasma, 6 weeks): −39.4%
Percent Fatty Acid Change from Baseline: DHA ([3]; 4 g dose, plasma, 6 weeks): −17.5%
Percent Fatty Acid Change from Baseline: DPA ([3]; 4 g dose, plasma, 6 weeks): +147%
AA, DHA and DGLA values ([3]; change from baseline, data not shown): decreased substantially
Total cholesterol reduction ([4]; 1 gram twice/day, after 6 months, baseline 204 mg/dL, p=0.009 vs placebo): 9.5 mg/dL
decrease in TGs ([4]; 1 gram twice/day, after 6 months, non-fasting, baseline 171, p=0.007 vs placebo): 26 mg/dL
Change in triglycerides after 6 months (mean mg/dL ± SD) ([4]; 1 gram twice/day, baseline 171 ± 108, p .007): -25.8 ± 89.1 mg/dL
Change in total cholesterol after 6 months (mean mg/dL ± SD) ([4]; 1 gram twice/day, baseline 204 ± 41.4, p .009): -9.5 ± 28.6 mg/dL
Change in triglycerides after 12 months (mean mg/dL ± SD) ([4]; second 6 months open-label, p 0.66): -17.7 ± 86.7 mg/dL
Change in total cholesterol after 12 months (mean mg/dL ± SD) ([4]; second 6 months open-label, p 0.95): -5.6 ± 25.5 mg/dL
Change in total motor score 4 at 12 months (mean) ([5]; All Study Participants n = 316, baseline 25.2, p 0.02): 0.0
Change in total motor score 4 at 6 months (mean) ([5]; All Study Participants n = 316, baseline 25.2, p 0.20): 0.2
Change in total motor score 4 at 12 months (mean) ([5]; Study Participants with CAG < 45, n = 221, baseline 24.9, p 0.004): −1.2
Change in total motor score 4 at 6 months (mean) ([5]; Study Participants with CAG < 45, n = 221, baseline 24.9, p 0.70): 0.0
Diarrhea ([7]; 2 g/day, N = 76): 4 (5.3) n (%)
Dyspepsia ([7]; 2 g/day, N = 76): 1 (1.3) n (%)
Eructation ([7]; 2 g/day, N = 76): 1 (1.3) n (%)
Hypertension ([7]; 2 g/day, N = 76): 4 (5.3) n (%)
Infection ([7]; 2 g/day, N = 76): 2 (2.6) n (%)
Nausea ([7]; 2 g/day, N = 76): 5 (6.6) n (%)
Skin rash ([7]; 2 g/day, N = 76): 1 (1.3) n (%)
Subjects with any TEAE ([7]; 2 g/day, N = 76): 27 (35.5) n (%)
Diarrhea ([7]; 4 g/day, N = 77): 1 (1.3) n (%)
Dyspepsia ([7]; 4 g/day, N = 77): 1 (1.3) n (%)
Eructation ([7]; 4 g/day, N = 77): 0 (0.0) n (%)
Hypertension ([7]; 4 g/day, N = 77): 1 (1.3) n (%)
Infection ([7]; 4 g/day, N = 77): 4 (5.2) n (%)
Nausea ([7]; 4 g/day, N = 77): 1 (1.3) n (%)
Skin rash ([7]; 4 g/day, N = 77): 0 (0.0) n (%)
Subjects with any TEAE ([7]; 4 g/day, N = 77): 28 (36.4) n (%)
